Test results: patent EP1699833B1, “OLIGOMERS CONTAINING N-ACETYL GLUCOSAMINE” (Council of Scientific and Industrial Research, priority 2003, dated 2005)

Biological target: lysozyme (Gallus gallus, UniProt P00698)
Assay: Relative inhibition of lysozyme (lysis of Micrococcus lysodeikticus, absorbance at 450 nm)
Type: biochemical
Details: Micrococcus lysodeikticus substrate, phosphate buffer pH 6.2, 20° C; for IC50: read-out: I50; for Imax: maximum inhibition; for concentration at maximum inhibition: concentration at Imax
Experimental: This example describes estimation of relative inhibition of lysozyme by polyvalent oligomer containing NAG
1.5 % w/v stock solutions of oligomer containing NAG was prepared in 0.0066 M phosphate buffer pH 6.2 containing 0.0154 m sodium chloride and 0.008 M sodium azide. One milliliter of stock solution containing different ligand concentration was mixed with 1.6 ml of 78 µg1ml of Micrococcus lysodeikticus in a 3-ml capacity lass cuvette. The mixture was incubated for 5 minutes at 20° C. To this mixture 0.1 ml of lysozyme (27 µg1ml) was added and mixed thoroughly. The absorbance at 450 nm (Δ450) was recorded for 30 seconds. A blank reading without the polymer ligand was noted and the change in the absorbance per second was calculated.

lysozyme, sequence (P00698 19-147): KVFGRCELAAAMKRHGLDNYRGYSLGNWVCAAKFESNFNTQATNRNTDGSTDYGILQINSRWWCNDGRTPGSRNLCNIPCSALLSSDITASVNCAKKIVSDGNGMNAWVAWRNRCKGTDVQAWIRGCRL

In the case of C=CC(=O)OCC1OC(O)C(NC(C)=O)C(O)C1O (stereo not shown) [Ac .NAG, Acryloyl N-Acetyl Glucosamine], the IC50 is reported as 14.8 mM and the Imax is reported as 50.00.

CC(=O)N[C@H]1C(O)O[C@H](CO)[C@@H](O)[C@@H]1O (stereo partly shown) [NAG, N-Acetyl Glucosamine] was tested, and the “concentration at maximum inhibition” value was 92.50 mM and the Imax was 55.29.

“Methacryloyl N-Acetyl Glucosamine [M.Ac. NAG]” was tested, and the IC50 was 18.1 mM, the “concentration at maximum inhibition” value was 21.2 mM and the Imax was 71.89.
